Results as given in publication PMC7576608, “Mechanisms of telomerase inhibition by oxidized and therapeutic dNTPs” (Nature Communications, 2020).
Several values for one entry are separate records, joined by “and”; a condition that tells them apart may be missing. Equal values may be shown once.

Molecular target: telomerase (Homo sapiens, UniProt O14746)
Test: Direct telomerase assay in the absence or presence of POT1-TPP1 (processivity R1/2)
Type: biochemical
Design: made in house; POT1: baculovirus-infected Sf9; TPP1-N: E. coli BL21(DE3) pLysS
Settings: analog substituted for its natural dNTP, other dNTPs at cellular concentration
Excerpt: Next we tested whether the telomerase processivity factor POT1–TPP1 modulates modified dNTP inhibition of telomerase. POT1 binds to the telomeric ssDNA overhang, requiring the minimum sequence of 5′-[…]-3′[38]. Inclusion of POT1-binding partner TPP1, increases the binding affinity for telomeric DNA ten-fold compared to POT1 alone. POT1–TPP1 recruits telomerase to telomeres in vivo[39], and greatly increases telomerase repeat processivity. Therefore, we reasoned that POT1–TPP1 may overcome inhibition by the modified dNTPs and enhance telomerase processivity. We conducted telomerase extension reactions with radiolabeled primer in the presence of POT1–TPP1, and used a primer with a single mutation ([…]; underlined G to C mutation)[40] to ensure POT1–TPP1 is positioned at the 5′ portion of the primer (Fig. 5). This provides a homogenous substrate for telomerase extension.
For these reactions, we replaced the natural dNTP with the modified dNTP analog, while the other dNTPs remained at cellular relevant concentrations.
Direct telomerase assays were conducted in the absence or presence of 500 nM POT1 and 500 nM TPP1, as indicated, and 5 nM ^32P-end labeled primer ([…]) designed to position POT1 at the 10 nt primer 5′ end. Reactions contained cellular-concentration dNTPs (lanes 1 and 2), except when the natural dNTP was substituted with the oxidized dNTP a or therapeutic dNTP b analog (lanes 3–8), as indicated. […] Letters on the right indicate template base; P indicates unextended 18-mer primer. c Processivity was calculated on the basis of total products normalized to loading control. Images are representative of, and data are shown as mean ± s.d. from 3 to 5 independent experiments. Source data are provided as a Source Data file.
The reactions were started by the addition of 3 μl of immunopurified telomerase eluent, incubated at 37 °C for 1 h, then terminated with 2 μl of […] and heat inactivated at 65 °C for 20 min. An equal volume of loading buffer (94% formamide, 0.1× TBE, 0.1% bromophenol blue, 0.1% xylene cyanol) was added to the reaction eluent. The samples were heat denatured for 10 min at 100 °C and loaded onto a 14% denaturing acrylamide gel (7 M urea, 1× TBE) and electrophoresed for 90 min at constant 38 W. Samples were imaged using a Typhoon phosphorimager (GE Healthcare). Percent primer extension was calculated with ImageQuant TL 8.2 by measuring the intensity of each product band and dividing by the total radioactivity in the lane or total products, as indicated in the figure legends.
The processivity was calculated as described[40],[67]. Repeat processivity from the direct telomerase extension assays was calculated as R1/2 (equivalent to the half-time for decay in an exponential time course), which represents the median length of DNA product formed, expressed in terms of number of telomere repeats. First, the total volume counts for each product band extend by one or more telomere repeats were obtained using Image Quant TL. The volume counts were then normalized by dividing by the number of radiolabeled guanosines incorporated into the extended products based on the number of repeats added, termed corrected volume (corr vol). The “percent left behind” (%LB) was calculated for each product band by summing the counts for that product band and for every product band below (shorter products), divided by the total counts for the lane, and then multiplied by 100. The natural log of (100−%LB) was calculated and then plotted vs. repeat number for each product length. A linear regression line was fit to the data to determine the slope of the line.

[1] = 500 nM POT1 and 500 nM TPP1, Mean
[2] = 500 nM POT1 and 500 nM TPP1, n1-n3

Row | SMILES | Processivity R 1/2 [1] | Processivity R 1/2 (500 nM POT1 and 500 nM TPP1, Mean, listed as 2dA) | Processivity R 1/2 (500 nM POT1 and 500 nM TPP1, n1-n3, listed as 2dA) | Processivity R 1/2 (Control (no POT1-TPP1), Mean) | Processivity R 1/2 (Control (no POT1-TPP1), Mean, listed as 2dA) | Processivity R 1/2 (Control (no POT1-TPP1), n1-n3, listed as 2dA) | Processivity R 1/2 [2] | Processivity R 1/2 (Control (no POT1-TPP1), n1-n3) | Processivity R 1/2 (500 nM POT1 and 500 nM TPP1, n1-n3, listed as 8dA)
1 | Nc1nc(O)nc2c1ncn2C1CC(O)C(COP(=O)(O)OP(=O)(O)OP(=O)(O)O)O1 (centres unmarked) [2-OH-dATP] | 2.3 | 2.27 | 2.20 and 2.10 and 2.50 | 0.5 | 0.49 | 0.49 and 0.48 and 0.51 |  |  | 
2 | Nc1nc2c(ncn2C2CC(O)C(COP(=O)(O)OP(=O)(O)OP(=O)(O)O)O2)c(=S)[nH]1 (centres unmarked) [6-thio-dGTP] | 0.00 |  |  | 0.00 |  |  | 0.00 | 0.00 | 
3 | Nc1ncnc2c1[nH]c(=O)n2C1CC(O)C(COP(=O)(O)OP(=O)(O)OP(=O)(O)O)O1 (centres unmarked) [8-oxo-dATP] | 1.31 |  |  | 0.00 |  |  |  | 0.00 | 1.15 and 1.30 and 1.47
4 | Nc1nc2c([nH]c(=O)n2C2CC(O)C(COP(=O)(O)OP(=O)(O)OP(=O)(O)O)O2)c(=O)[nH]1 (centres unmarked) [8-oxo-dGTP] | 0.00 |  |  | 0.00 |  |  | 0.00 | 0.00 | 
5 | Cc1cn([C@H]2C[C@H](N=[N+]=[N-])[C@@H](CO[P@](=O)(O)O[P@](=O)(O)OP(=O)(O)O)O2)c(=O)[nH]c1=O [AZT-TP] | 0.00 |  |  | 0.00 |  |  | 0.00 | 0.00 | 
6 | O=c1[nH]cnc2c1ncn2C1CCC(COP(=O)(O)OP(=O)(O)OP(=O)(O)O)O1 (centres unmarked) [ddITP] | 0.00 |  |  | 0.00 |  |  | 0.00 | 0.00 | 
